1 substance from patent US6350741B1, “Inhibitors of interleukin-1β converting enzyme” (Vertex Pharmaceutical, Inc., priority 1996, dated 2002) can be followed below.

The nature of data set [1]: In vivo bioavailability determination (oral dosing to rats). To be noted: rat. How it is done: In vivo Bioavailability Determination
The drugs (10-100 mg/kg) were dosed orally to rats (10 mL/kg) in ethanol/PEG/water, β-cyclodextrin, labrosol/water or cremophor/water. Blood samples were drawn from the carotid artery at 0.25, 0.50, 1, 1.5, 2, 3, 4, 6, and 8 hours after dosing, centrifuged to separate plasma and stored at −70° C. until analyzed. Aldehyde concentrations were determined using HPLC/MS. Pharmacokinetic analysis of data was performed by non-linear regression using RStrip (MicroMath Software, UT). Drug availability values may be determined as follows: (AUC of drug after oral prodrug dosing/AUC of drug after i.v. dosing of drug)×(dose i.v./dose p.o.)×100%.

Another data set concerns IL-1β. The data set is described as follows: LPS-induced IL-1β production in mice. The data set is classed as in vivo, mouse. Conditions: PO @ 100 mg/kg, compound given 1 hour relative to LPS challenge. How it is done:
In vivo Acute Assay for Efficacy as Anti-inflammatory Agent
LPS-Induced IL-1β Production
Efficacy is evaluated in CD1 mice (n is 6 per condition, for example) challenged with LPS (20 mg/kg IP). The test compounds are prepared in olive oil:DMSO:ethanol (90:5:5) and administered by IP injection one hour after LPS. Blood is collected seven hours after LPS challenge. Serum IL-1β levels are measured by ELISA.
Compounds may also be administered by oral gavage to assess absorption.
We obtained inhibition data in Table 5 using the methods described in Example 12. Efficacy for Prodrugs in LPS-Induced IL-1β Production in Mice. Time of compound administration relative to time of LPS challenge was 1 hour. Dose of compound was PO @ 100 mg/kg.

The term Cmax denotes the highest concentration seen after dosing. “(3S)-2,5-Dioxo-3-(Isoquinolin-3-oyl)amino-2,3,4,5-tetrahyo-1H-1-benzazepine-N-((2RS, 3S)-2-benzyloxy-5-oxo-tetrahydrofuran-3-yl)-1-acetamide [Compound 16b]”: the “blood levels of drug when dosed orally” value in data set [1] (oral prodrug dosing) is given as “significant blood levels of drug”. Further, in data set [1] (oral, dose 50 mg/kg, aldehyde (drug) concentration after prodrug dosing), the Cmax is 6100 ng/mL. Further, the “% Inhibition of IL-1β” value with IL-1β is on record as 53%.
